From PubChem BioAssay (NCI)
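Grown in 96-well plates, cells were treated for 48 hours with each compound at five concentrations. Insufficient inhibition: endpoint recorded as highest concentration tested. The concentration for 50% growth inhibition is given as GI50. TGI: total growth inhibition.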

Assays:
Assay in all cases: DTP human tumour cell line panel, 48 h
COLO 205 colon = tested on: COLO 205 colon
EKVX NSCLC = tested on: EKVX NSCLC
HL-60(TB) leukemia = tested on: HL-60(TB) leukemia
IGROV1 ovarian = tested on: IGROV1 ovarian
KM12 colon = tested on: KM12 colon
MALME-3M melanoma = tested on: MALME-3M melanoma
MDA-MB-231 breast = tested on: MDA-MB-231 breast
SK-OV-3 ovarian = tested on: SK-OV-3 ovarian
SNB-19 CNS = tested on: SNB-19 CNS
SNB-75 CNS = tested on: SNB-75 CNS

COc1ccc(C(=O)COC(=O)[C@H](C[Se][Se]C[C@H](NC(=O)c2ccc(Br)cc2F)C(=O)OCC(=O)c2ccc(OC)cc2)NC(=O)c2ccc(Br)cc2F)cc1
GI50 (COLO 205 colon): 2.56 µM
TGI (COLO 205 colon): 7.95 µM
GI50 (EKVX NSCLC): 0.591 µM
TGI (EKVX NSCLC): 2.35 µM
GI50 (HL-60(TB) leukemia): 2.72 µM
TGI (HL-60(TB) leukemia): 12.2 µM
GI50 (IGROV1 ovarian): 0.82 µM
TGI (IGROV1 ovarian): 2.62 µM
GI50 (KM12 colon): 0.376 µM
TGI (KM12 colon): 1.55 µM
GI50 (MALME-3M melanoma): 2.04 µM
TGI (MALME-3M melanoma): 4.4 µM
GI50 (MDA-MB-231 breast): 0.846 µM
TGI (MDA-MB-231 breast): 2.77 µM
GI50 (SK-OV-3 ovarian): 0.441 µM
TGI (SK-OV-3 ovarian): 1.64 µM
GI50 (SNB-19 CNS): 0.427 µM
TGI (SNB-19 CNS): 4.9 µM
GI50 (SNB-75 CNS): 0.347 µM
TGI (SNB-75 CNS): 1.26 µM

COc1cc(OC)c(/C=C\c2ccnc3ccccc23)c(OC)c1
TGI (COLO 205 colon): 8.2 µM
TGI (EKVX NSCLC): 17.7 µM
TGI (HL-60(TB) leukemia): 0.963 µM
TGI (IGROV1 ovarian): 15.5 µM
TGI (KM12 colon): 16.5 µM
TGI (MALME-3M melanoma): 16.5 µM
TGI (MDA-MB-231 breast): 15.4 µM
TGI (SK-OV-3 ovarian): 20.5 µM
TGI (SNB-19 CNS): 18.2 µM

COc1ccc2c(CN3CCC(C(=O)O)CC3)cc3cc4c(cc3c2c1)OCO4
GI50 (COLO 205 colon): 1.55 µM
TGI (COLO 205 colon): 4.33 µM
GI50 (EKVX NSCLC): 3.69 µM
TGI (EKVX NSCLC): 20.6 µM
GI50 (HL-60(TB) leukemia): 3.97 µM
TGI (HL-60(TB) leukemia): 15.3 µM
GI50 (KM12 colon): 2.52 µM
TGI (KM12 colon): 10.4 µM
GI50 (MALME-3M melanoma): 1.58 µM
TGI (MALME-3M melanoma): 3.45 µM
GI50 (MDA-MB-231 breast): 3.87 µM
TGI (MDA-MB-231 breast): 30.7 µM
GI50 (SNB-19 CNS): 3.35 µM
TGI (SNB-19 CNS): 22.6 µM
GI50 (SNB-75 CNS): 2.41 µM
TGI (SNB-75 CNS): 9.03 µM

O=C(c1ccccc1)c1ccc(Oc2ccc([N+](=O)[O-])cc2[N+](=O)[O-])cc1
GI50 (COLO 205 colon): 2.4 µM
TGI (COLO 205 colon): 5.46 µM
GI50 (EKVX NSCLC): 13.2 µM
TGI (EKVX NSCLC): 38.4 µM
GI50 (HL-60(TB) leukemia): 2.19 µM
TGI (HL-60(TB) leukemia): 5.89 µM
GI50 (IGROV1 ovarian): 2.39 µM
TGI (IGROV1 ovarian): 5.61 µM
GI50 (KM12 colon): 2.72 µM
TGI (KM12 colon): 7.34 µM
GI50 (MDA-MB-231 breast): 6.74 µM
TGI (MDA-MB-231 breast): 49.9 µM
GI50 (SK-OV-3 ovarian): 4.09 µM
TGI (SK-OV-3 ovarian): 29.4 µM
GI50 (SNB-19 CNS): 7.74 µM
TGI (SNB-19 CNS): 34.2 µM
GI50 (SNB-75 CNS): 5.62 µM
TGI (SNB-75 CNS): 26.7 µM

COc1ccc2cc(-c3cc4c(oc3=O)-c3ccccc3OC4O)c(=O)oc2c1 (configuration not stated)
GI50 (COLO 205 colon): 16.1 µM
TGI (COLO 205 colon): 33.4 µM
GI50 (EKVX NSCLC): 15.2 µM
TGI (EKVX NSCLC): 32.8 µM
GI50 (HL-60(TB) leukemia): > 100 µM
TGI (HL-60(TB) leukemia): > 100 µM
GI50 (IGROV1 ovarian): 16.9 µM
TGI (IGROV1 ovarian): 34 µM
GI50 (KM12 colon): 18.2 µM
TGI (KM12 colon): 34.9 µM
GI50 (MALME-3M melanoma): 19.3 µM
TGI (MALME-3M melanoma): 36.8 µM
GI50 (MDA-MB-231 breast): 17.9 µM
TGI (MDA-MB-231 breast): 36.1 µM
GI50 (SK-OV-3 ovarian): 17.1 µM
TGI (SK-OV-3 ovarian): 32.3 µM
GI50 (SNB-19 CNS): 16.2 µM
TGI (SNB-19 CNS): 30.5 µM
GI50 (SNB-75 CNS): 5.73 µM
TGI (SNB-75 CNS): 23.4 µM

O=C1c2nsnc2C(=O)c2c(F)c(F)c(F)c(F)c21
GI50 (COLO 205 colon): 0.236 µM
TGI (COLO 205 colon): 0.527 µM
GI50 (HL-60(TB) leukemia): 0.591 µM
TGI (HL-60(TB) leukemia): 2.73 µM
GI50 (IGROV1 ovarian): 1.52 µM
TGI (IGROV1 ovarian): 5.07 µM
GI50 (KM12 colon): 1.4 µM
TGI (KM12 colon): 3.29 µM
GI50 (MDA-MB-231 breast): 1.38 µM
TGI (MDA-MB-231 breast): 2.78 µM
GI50 (SK-OV-3 ovarian): 2.04 µM
TGI (SK-OV-3 ovarian): 3.7 µM
GI50 (SNB-19 CNS): 1.2 µM
TGI (SNB-19 CNS): 2.56 µM
GI50 (SNB-75 CNS): 1.02 µM
TGI (SNB-75 CNS): 2.21 µM

NC(N)=N/N=C/c1c(-c2cc(Cl)sc2Cl)nc2sccn12
GI50 (EKVX NSCLC): 3.72 µM
TGI (EKVX NSCLC): 13.1 µM
GI50 (IGROV1 ovarian): 1.14 µM
TGI (IGROV1 ovarian): 8.08 µM
GI50 (KM12 colon): 1.04 µM
TGI (KM12 colon): 2.75 µM
GI50 (MDA-MB-231 breast): 0.751 µM
TGI (MDA-MB-231 breast): 1.75 µM

C/C(=C\CCc1ccoc1)CC/C=C(\C)CCCN1CCOCC1
GI50 (COLO 205 colon): 3.15 µM
TGI (COLO 205 colon): 12.4 µM
GI50 (HL-60(TB) leukemia): 2.5 µM
TGI (HL-60(TB) leukemia): 5.5 µM
GI50 (IGROV1 ovarian): 15.4 µM
TGI (IGROV1 ovarian): 36.8 µM
GI50 (KM12 colon): 4.11 µM
TGI (KM12 colon): 16.1 µM
GI50 (MDA-MB-231 breast): 2.9 µM
TGI (MDA-MB-231 breast): 12.2 µM
GI50 (SK-OV-3 ovarian): 7.06 µM
TGI (SK-OV-3 ovarian): 19.7 µM
GI50 (SNB-19 CNS): 9.27 µM
TGI (SNB-19 CNS): 23.6 µM
GI50 (SNB-75 CNS): 3.15 µM
TGI (SNB-75 CNS): 16.3 µM

O=C(CN(/C=C/C(=O)C(F)(F)F)c1ccc(Cl)cc1)c1ccccc1
GI50 (COLO 205 colon): 15.3 µM
TGI (COLO 205 colon): > 100 µM
GI50 (EKVX NSCLC): 15.1 µM
TGI (EKVX NSCLC): 34.1 µM
GI50 (HL-60(TB) leukemia): 17.3 µM
TGI (HL-60(TB) leukemia): 66.7 µM
GI50 (IGROV1 ovarian): 0.303 µM
TGI (IGROV1 ovarian): 24.3 µM
GI50 (KM12 colon): 10.8 µM
TGI (KM12 colon): 36.6 µM
GI50 (MDA-MB-231 breast): 15.8 µM
TGI (MDA-MB-231 breast): 33.8 µM
GI50 (SK-OV-3 ovarian): 51.2 µM
TGI (SK-OV-3 ovarian): > 100 µM
GI50 (SNB-19 CNS): 33 µM
TGI (SNB-19 CNS): > 100 µM
GI50 (SNB-75 CNS): 12.9 µM
TGI (SNB-75 CNS): 41.1 µM

CCCCCCCCN(CCCCCCCC)CCCCCCNc1cc(OC)cc2cccnc12
GI50 (EKVX NSCLC): 6.82 µM
TGI (EKVX NSCLC): 24 µM
GI50 (HL-60(TB) leukemia): 16.4 µM
TGI (HL-60(TB) leukemia): 37.3 µM
GI50 (IGROV1 ovarian): 13.2 µM
TGI (IGROV1 ovarian): 29.4 µM
GI50 (KM12 colon): 6.81 µM
TGI (KM12 colon): 20 µM
GI50 (MALME-3M melanoma): 6.92 µM
TGI (MALME-3M melanoma): 21.9 µM
GI50 (MDA-MB-231 breast): 4.75 µM
TGI (MDA-MB-231 breast): 15.9 µM
GI50 (SK-OV-3 ovarian): 15.3 µM
TGI (SK-OV-3 ovarian): 28.8 µM
GI50 (SNB-19 CNS): 10.5 µM
TGI (SNB-19 CNS): 24.2 µM
GI50 (SNB-75 CNS): 15.3 µM
TGI (SNB-75 CNS): 29 µM

Cc1ccc(-c2cc3c(SCC(=O)Nc4cc(C(F)(F)F)ccc4Cl)nccn3n2)cc1
GI50 (COLO 205 colon): > 100 µM
TGI (COLO 205 colon): > 100 µM
GI50 (HL-60(TB) leukemia): > 100 µM
TGI (HL-60(TB) leukemia): > 100 µM
GI50 (IGROV1 ovarian): > 100 µM
TGI (IGROV1 ovarian): > 100 µM
GI50 (KM12 colon): > 100 µM
TGI (KM12 colon): > 100 µM
GI50 (MALME-3M melanoma): > 100 µM
TGI (MALME-3M melanoma): > 100 µM
GI50 (MDA-MB-231 breast): 94.5 µM
TGI (MDA-MB-231 breast): > 100 µM
GI50 (SK-OV-3 ovarian): 69.4 µM
TGI (SK-OV-3 ovarian): > 100 µM
GI50 (SNB-19 CNS): 30.9 µM
TGI (SNB-19 CNS): > 100 µM
GI50 (SNB-75 CNS): 23.5 µM
TGI (SNB-75 CNS): > 100 µM

CN(Cc1cc(Br)cc(Br)c1O)Cc1cc(Br)cc(Br)c1O
GI50 (COLO 205 colon): 3.72 µM
TGI (COLO 205 colon): 15.2 µM
GI50 (EKVX NSCLC): 3.03 µM
TGI (EKVX NSCLC): 20.2 µM
GI50 (HL-60(TB) leukemia): 1.08 µM
TGI (HL-60(TB) leukemia): 10.9 µM
GI50 (IGROV1 ovarian): 1.56 µM
TGI (IGROV1 ovarian): 18.1 µM
GI50 (KM12 colon): 3.81 µM
TGI (KM12 colon): 16.4 µM
GI50 (MALME-3M melanoma): 3.51 µM
TGI (MALME-3M melanoma): 22 µM
GI50 (MDA-MB-231 breast): 3.26 µM
TGI (MDA-MB-231 breast): 19.6 µM
GI50 (SNB-19 CNS): 4.86 µM
TGI (SNB-19 CNS): 36 µM
GI50 (SNB-75 CNS): 12.9 µM
TGI (SNB-75 CNS): 49.3 µM

O=C(c1ccccc1)N1C2CCC1C(C(F)(F)F)=C2C(F)(F)F
TGI (COLO 205 colon): > 100 µM
TGI (EKVX NSCLC): > 100 µM
TGI (HL-60(TB) leukemia): > 100 µM
TGI (IGROV1 ovarian): > 100 µM
TGI (KM12 colon): > 100 µM
TGI (MALME-3M melanoma): > 100 µM
TGI (SK-OV-3 ovarian): > 100 µM
TGI (SNB-19 CNS): > 100 µM
TGI (SNB-75 CNS): > 100 µM

CNCc1cc(OC)ccc1-c1ccc(OC)c(OC)c1OC
TGI (COLO 205 colon): > 100 µM
TGI (EKVX NSCLC): > 100 µM
TGI (HL-60(TB) leukemia): > 100 µM
TGI (IGROV1 ovarian): > 100 µM
TGI (KM12 colon): > 100 µM
TGI (MALME-3M melanoma): > 100 µM
TGI (SK-OV-3 ovarian): > 100 µM
TGI (SNB-19 CNS): > 100 µM
TGI (SNB-75 CNS): > 96.7 µM

CC1=NOC(=O)/C1=C/c1cccc2ccccc12
TGI (COLO 205 colon): > 100 µM
TGI (EKVX NSCLC): > 100 µM
TGI (HL-60(TB) leukemia): > 100 µM
TGI (IGROV1 ovarian): > 100 µM
TGI (KM12 colon): > 100 µM
TGI (MALME-3M melanoma): > 100 µM
TGI (SK-OV-3 ovarian): > 100 µM
TGI (SNB-19 CNS): > 100 µM
TGI (SNB-75 CNS): > 100 µM
